Experimental data taken from publication PMC6009894, “Molecular modelling insights into a physiologically favourable approach to eicosanoid biosynthesis inhibition through novel thieno[2,3-b]pyridine derivatives” (Journal of Enzyme Inhibition and Medicinal Chemistry, 2018).
“And” between values parts separate entries of the source, which are not always exact repeats. Equal entries are not always repeated.

Experiments:
[1] = molecular target: T1, 5-LOX (Homo sapiens, UniProt P09917); experiment: 5-LOX Inhibitor Screening Assay Kit (Cayman); type: biochemical; settings: for 5-LOX IC50 level: in words
T1 sequence (P09917 1-674): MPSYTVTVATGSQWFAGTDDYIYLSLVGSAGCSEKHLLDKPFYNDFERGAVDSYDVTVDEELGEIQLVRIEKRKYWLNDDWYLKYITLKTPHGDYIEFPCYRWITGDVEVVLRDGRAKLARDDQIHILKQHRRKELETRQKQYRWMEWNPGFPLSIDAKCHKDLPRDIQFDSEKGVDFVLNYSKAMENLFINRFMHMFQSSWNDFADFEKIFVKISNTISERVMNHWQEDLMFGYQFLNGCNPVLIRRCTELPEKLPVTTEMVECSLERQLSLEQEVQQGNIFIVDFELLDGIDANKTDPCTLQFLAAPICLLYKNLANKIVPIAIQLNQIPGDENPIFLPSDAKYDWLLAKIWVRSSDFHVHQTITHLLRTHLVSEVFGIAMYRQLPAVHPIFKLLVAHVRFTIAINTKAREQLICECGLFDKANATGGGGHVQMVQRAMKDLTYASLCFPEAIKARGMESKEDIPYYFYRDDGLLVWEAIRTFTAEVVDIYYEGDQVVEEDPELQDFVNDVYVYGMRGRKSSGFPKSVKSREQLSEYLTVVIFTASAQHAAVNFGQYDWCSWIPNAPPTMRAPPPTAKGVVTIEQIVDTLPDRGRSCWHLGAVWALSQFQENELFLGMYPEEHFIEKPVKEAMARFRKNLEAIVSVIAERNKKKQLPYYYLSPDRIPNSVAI
Text: (§1) The used protocol was according to the manufacturer protocol guide and instructions using ELISA plate reader.

[2] = molecular target: T2, COX-1 (human) (Homo sapiens, UniProt P23219); experiment: COX-1 (human) Inhibitor Screening Assay Kit (Cayman); type: biochemical
T2 construct: purchased Cayman (Ann Arbor, MI) 701070
T2 sequence (P23219 24-599): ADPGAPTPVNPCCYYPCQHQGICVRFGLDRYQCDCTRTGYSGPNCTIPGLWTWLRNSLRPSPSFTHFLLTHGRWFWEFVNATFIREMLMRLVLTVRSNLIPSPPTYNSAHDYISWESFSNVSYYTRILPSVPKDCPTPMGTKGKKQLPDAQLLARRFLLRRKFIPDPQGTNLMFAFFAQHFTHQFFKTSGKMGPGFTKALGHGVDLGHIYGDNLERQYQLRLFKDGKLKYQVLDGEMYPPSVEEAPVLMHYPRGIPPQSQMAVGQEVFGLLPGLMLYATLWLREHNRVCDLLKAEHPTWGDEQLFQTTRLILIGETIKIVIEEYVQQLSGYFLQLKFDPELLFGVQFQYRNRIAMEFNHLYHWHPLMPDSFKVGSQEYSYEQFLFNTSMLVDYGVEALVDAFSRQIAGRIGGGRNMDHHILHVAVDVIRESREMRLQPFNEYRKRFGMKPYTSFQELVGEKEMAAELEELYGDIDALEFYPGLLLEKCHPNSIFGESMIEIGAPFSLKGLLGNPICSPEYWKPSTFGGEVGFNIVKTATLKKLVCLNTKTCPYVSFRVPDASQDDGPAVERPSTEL
Text: as §1

[3] = tested on: carrageenan-induced rat paw oedema; experiment: carrageenan-induced rat paw oedema assay; type: in vivo, Sprague–Dawley rats; settings: for Inhibition of acute inflammation % inh / Swel (mean difference in rat paw volume between right and left paw): dose equivalent to 70 mg kg-1 ibuprofen; for Swel (mean difference in rat paw volume between right and left paw): DMSO; for inflammation reduction % (4h): rat paw oedema, 4 h time interval, subcutaneous, equimolar to ibuprofen 70 mg kg-1
Protocol: According to a priori test results, experiments were conducted on young adult male Sprague–Dawley rats (5 rats per group), weighing 140–170 g. The animals were housed at cages in a temperature controlled (25 ± 1 °C) environment and were fed ad libitum with standard laboratory chow and allowed free access to water. […] The animal protocol is in accordance with the Animal Ethical Care regulations in the Faculty of Pharmacy, Helwan University.
Compounds (equimolar to the reference drug) were dissolved in DMSO and administrated subcutaneously. One hour later, paw oedema was induced by subplantar injection of 0.1 ml of 1% carrageenan (Sigma-Aldrich, St. Louis, MO) into the right hind paw. Paw volume was measured using a water plethysmometer (Basile, Comerio, Italy). The difference between the right and left paw volume was measured at 1, 2, 3, and 4 h after induction of inflammation.
The control group (five rats per group) received DMSO subcutaneously and carrageenan in the subplantar region. Results were expressed as percentage inhibition of inflammation.

[4] = molecular target: T3, COX-2 (human) (Homo sapiens, UniProt P35354); experiment: COX-2 (human) Inhibitor Screening Assay Kit (Cayman); type: biochemical; settings: for selectivity index COX-2/COX-1: towards COX-2 than COX-1
T3 construct: purchased Cayman (Ann Arbor, MI) 701080
T3 sequence (P35354 18-604): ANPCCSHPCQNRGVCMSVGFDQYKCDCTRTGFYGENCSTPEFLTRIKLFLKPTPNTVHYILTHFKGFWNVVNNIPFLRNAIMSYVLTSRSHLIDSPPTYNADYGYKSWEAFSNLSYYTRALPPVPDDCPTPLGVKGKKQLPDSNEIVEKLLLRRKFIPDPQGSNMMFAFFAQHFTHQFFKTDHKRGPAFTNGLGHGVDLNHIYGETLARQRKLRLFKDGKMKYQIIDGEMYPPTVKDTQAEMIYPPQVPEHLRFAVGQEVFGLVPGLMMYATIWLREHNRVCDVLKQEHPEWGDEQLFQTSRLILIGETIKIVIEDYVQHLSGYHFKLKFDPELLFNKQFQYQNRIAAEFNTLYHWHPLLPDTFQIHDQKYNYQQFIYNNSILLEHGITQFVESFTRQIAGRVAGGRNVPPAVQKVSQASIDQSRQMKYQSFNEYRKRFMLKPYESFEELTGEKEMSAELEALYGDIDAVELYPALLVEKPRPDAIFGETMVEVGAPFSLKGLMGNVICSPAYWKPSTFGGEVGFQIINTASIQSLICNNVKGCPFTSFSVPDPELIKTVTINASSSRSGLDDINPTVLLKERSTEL
Text: as §1

In the case of `Cc1cc(C)c2c(N)c(C(=O)NN=Cc3ccccc3)sc2n1` [Compound 7a, 3-Amino-4,6-dimethyl-thieno [2,3-b] pyridine-2-carboxylic acid benzylidene-hyrazide], the “5-LOX inhibition, times higher than 8a” value ([1]; compared with 8a) is reported as 35 times, the “5-LOX inhibition, times higher than 8c” value ([1]; compared with 8c) is reported as 87 times and the “5-LOX IC50 level” value [1] is reported as “nanomolar level”. The IC50 [2] was 45.9 µM, the “Inhibition of acute inflammation % inh” value ([3]; 1 h) was 37.68% and the “Swel (mean difference in rat paw volume between right and left paw)” value ([3]; 1 h after carrageenan) was 0.143. The “Inhibition of acute inflammation % inh” value ([3]; 2 h) was 42.3%, the “Swel (mean difference in rat paw volume between right and left paw)” value ([3]; 2 h after carrageenan) was 0.15 and the “Inhibition of acute inflammation % inh” value ([3]; 3 h) was 71.2%. The “Swel (mean difference in rat paw volume between right and left paw)” value ([3]; 3 h after carrageenan) was 0.156, the “Inhibition of acute inflammation % inh” value ([3]; 4 h) was 73.54% and the “Swel (mean difference in rat paw volume between right and left paw)” value ([3]; 4 h after carrageenan) was 0.16. For the same compound, the “inflammation reduction % (4h)” value [3] was 73.5% and 73.54%, the IC50 [4] was 9.99 µM and the “COX-2 inhibition, times higher than 8a” value ([4]; compared with 8a) was 3.6 times. For the same compound, the “COX-2 inhibition, times higher than 8c” value ([4]; compared with 8c) was 1.8 times and the “selectivity index COX-2/COX-1” value [4] was 4.6.
With `Cc1cc(C)c2c(N)c(C(=O)N/N=C/c3ccc(Cl)cc3)sc2n1` [Compound 7b, 3-Amino-4,6-dimethyl-thieno [2,3-b] pyridine-2-carboxylic acid (4-chloro-benzylidene)-hyrazide] the melting point was 280 to 282 °C, the “5-LOX IC50 level” value [1] was “nanomolar level” and the IC50 [2] was 31.8 µM. For the same compound, the “Inhibition of acute inflammation % inh” value ([3]; 1 h) was 22.1%, the “Swel (mean difference in rat paw volume between right and left paw)” value ([3]; 1 h after carrageenan) was 0.17 and the “Inhibition of acute inflammation % inh” value ([3]; 2 h) was 35.62%. For the same compound, the “Swel (mean difference in rat paw volume between right and left paw)” value ([3]; 2 h after carrageenan) was 0.16, the “Inhibition of acute inflammation % inh” value ([3]; 3 h) was 54.75% and the “Swel (mean difference in rat paw volume between right and left paw)” value ([3]; 3 h after carrageenan) was 0.25. For the same compound, the “Inhibition of acute inflammation % inh” value ([3]; 4 h) was 73.02%, the “Swel (mean difference in rat paw volume between right and left paw)” value ([3]; 4 h after carrageenan) was 0.17 and the “inflammation reduction % (4h)” value [3] was 73.02%. The IC50 [4] was 7.5 µM and 7.52 µM and the “selectivity index COX-2/COX-1” value [4] was 4.2.
With `Cc1cc(C)c2c(n1)sc1c(=O)n(/N=C/c3ccc(Cl)cc3)nnc12` [Compound 8b, 7,9-Dimethyl-3-[(4-chloro-phenyl-methylene)amino]pyrido[3ˈ,2ˈ:4,5] thieno [3,2-d][1,2,3]triazin-4(3H)-one] the melting point was 255 to 257 °C, the “5-LOX inhibition, times less potent than 7a” value ([1]; compared with 7a) was “approximately 90 times” and the “5-LOX IC50 level” value [1] was “micromolar level”. The IC50 [2] was 19.9 µM, the “affinity towards COX-1 over COX-2” value [2] was “approximately 2 fold” and the “Inhibition of acute inflammation % inh” value ([3]; 1 h) was 0%. For the same compound, the “Swel (mean difference in rat paw volume between right and left paw)” value ([3]; 1 h after carrageenan) was 0.23, the “Inhibition of acute inflammation % inh” value ([3]; 2 h) was 0% and the “Swel (mean difference in rat paw volume between right and left paw)” value ([3]; 2 h after carrageenan) was 0.27. The “Inhibition of acute inflammation % inh” value ([3]; 3 h) was 56.54%, the “Swel (mean difference in rat paw volume between right and left paw)” value ([3]; 3 h after carrageenan) was 0.24 and the “Inhibition of acute inflammation % inh” value ([3]; 4 h) was 78.23%. The “Swel (mean difference in rat paw volume between right and left paw)” value ([3]; 4 h after carrageenan) was 0.14, the “inflammation reduction % (4h)” value [3] was 78.2% and 78.23% and the IC50 [4] was 36 µM.
With `COc1ccc(/C=N/n2nnc3c(sc4nc(C)cc(C)c43)c2=O)cc1` [Compound 8c, 7,9-Dimethyl-3-[(4-methoxy-phenyl-methylene)amino]pyrido[3ˈ,2ˈ:4,5]thieno [3,2-d][1,2,3]triazin-4(3H)-one] the melting point was 240 to 242 °C, the “5-LOX IC50 level” value [1] was “micromolar level” and the IC50 [2] was 7.7 µM and 7.66 µM. The “affinity towards COX-1 over COX-2” value [2] was “approximately 2 fold”, the “Inhibition of acute inflammation % inh” value ([3]; 1 h) was 0% and the “Swel (mean difference in rat paw volume between right and left paw)” value ([3]; 1 h after carrageenan) was 0.246. For the same compound, the “Inhibition of acute inflammation % inh” value ([3]; 2 h) was 34.61%, the “Swel (mean difference in rat paw volume between right and left paw)” value ([3]; 2 h after carrageenan) was 0.17 and the “Inhibition of acute inflammation % inh” value ([3]; 3 h) was 41.78%. The “Swel (mean difference in rat paw volume between right and left paw)” value ([3]; 3 h after carrageenan) was 0.316, the “Inhibition of acute inflammation % inh” value ([3]; 4 h) was 79.36% and the “Swel (mean difference in rat paw volume between right and left paw)” value ([3]; 4 h after carrageenan) was 0.13. The “inflammation reduction % (4h)” value [3] was 79.4% and 79.36% and the IC50 [4] was 19 µM.
